Experiment [1] has as its system differentiated L6-myotubes. Nature of the experiment: Glucose uptake screen (Biological example 1 of WO 2019/053427). The format is cell-based. Conditions: compound at 10 μM, activity relative to isoproterenol at 10 μM, read-out: Biological example 1 of WO 2019/053427 (GU). In outline:
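Rat L6 myoblasts were differentiated into myotubes over 7 days in 2% FBS, then serum-starved overnight. Cells were stimulated with 1×10^−5 M compound plus β2 antagonist ICI-118551 for 1 h 40 min and re-dosed for 20 min in glucose-free medium. Uptake of 50 nM ^3H-2-deoxyglucose over 10 min was counted after NaOH lysis.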

The test system of experiment [2] is differentiated L6-myotubes. The experiment in a line: cAMP production relative to isoprenaline (Biological example 2 of WO 2019/053427). The format is cell-based. The following applies: 0.25 h, compound at 10 μM, activity relative to isoproterenol at 10 μM. In short, it runs like this:
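Differentiated L6 myotubes stimulated 15 min with test compound or isoprenaline, each at final 1×10^−5 M, in HBSS with 1% BSA, 5 mM HEPES, 1 mM IBMX, pH 7.4. cAMP production by the compound expressed relative to that induced by the same concentration of isoprenaline.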
(In general: cAMP levels reflect the balance of adenylyl cyclase and phosphodiesterase activity.)

With `CCCC(C)NCC(O)c1ccc(O)c(Cl)c1` (stereo not shown) [Compound 19, 1-(3-chloro-4-hydroxyphenyl)-2-(1-methylbutylamino)-1-ethanol], the Emax at 10 µM was 25 to 50% in experiment [1] and under 25% in experiment [2].
Consider `CO[C@H]1CC[C@H](CCNC[C@H](O)c2cncc(F)c2)CC1` [Compound 225, (R)-1-(5-fluoro-3-pyridyl)-2-{2-[(1r,4R)-4-methoxycyclohexyl]ethyl-amino}-1-ethanol], for which the Emax at 10 µM in experiment [1] was 50 to 75%; in experiment [2] it was under 25%.
`CC(C)(C[C@H]1CC[C@@H](N)CC1)NC[C@@H](O)c1cccc(C#N)n1` [Compound 416, 6-[(R)-2-{1,1-dimethyl-2-[(1s,4S)-4-aminocyclohexyl]ethylamino}-1-hydroxyethyl]-2-pyridinecarbonitrile]: the Emax at 10 µM is 50 to 75% in experiment [1] and under 25% in experiment [2].
In the case of `CCC[C@@H]1CCC[C@@H]([C@H](O)c2cccc(O)c2)N1` [Compound 136, (R)-[(2S,6R)-6-propyl-2-piperidyl](m-hydroxyphenyl)methanol], the results for the Emax at 10 µM in experiment [1] and in experiment [2] were over 75% and under 25%, respectively.
For the compound `O[C@@H](CNCCC[C@H]1CC[C@@H](O)CC1)c1cncc(F)c1` [Compound 304, (R)-1-(5-fluoro-3-pyridyl)-2-{3-[(1s,4R)-4-hydroxycyclohexyl]propylamino}-1-ethanol], the Emax at 10 µM is 50 to 75% in experiment [1] and under 25% in experiment [2].
As for `CO[C@H]1CC[C@H](CCC23CCC([C@@H](O)c4cccc(F)c4)(CC2)N3)CC1` [Compound 410, (S)-(m-fluorophenyl)(4-{2-[(1r,4R)-4-methoxycyclohexyl]ethyl}-7-azabicyclo[2.2.1]hept-1-yl)methanol], the Emax at 10 µM in experiment [1] is 50 to 75%; in experiment [2], under 25%.
`CC(C)(NC[C@H](O)c1cncc(F)c1)[C@H]1CC[C@@H](O)CC1` [Compound 286, (R)-1-(5-fluoro-3-pyridyl)-2-{1-methyl-1-[(1s,4S)-4-hydroxycyclohexyl]ethyl-amino}-1-ethanol]: the Emax at 10 µM in experiment [1] is 25 to 50%; in experiment [2] it was under 25%.
`CC1(C)C[C@@H]([C@H](O)c2ccccc2F)N1` [Compound 202, (R)-[(S)-4,4-dimethyl-2-azetidinyl](o-fluorophenyl)methanol]: the Emax at 10 µM in experiment [1] and in experiment [2] was under 25% each time.
Take `O[C@@H](c1cncc(F)c1)[C@H]1CC[C@@H](Cc2ccc(Cl)cc2)N1` [Compound 403, (S)-{(2R,5S)-5-[(p-chlorophenyl)methyl]-2-pyrroldiinyl}(5-fluoro-3-pyridyl)methanol]: the values for the Emax at 10 µM in experiment [1] and in experiment [2] were 50 to 75% and under 25%, respectively.
For the compound `CC(C)(C[C@H]1CC[C@@H](NS(=O)(=O)C(F)(F)F)CC1)NC[C@H](O)c1cncc(F)c1` [Compound 522, (R)-2-{1,1-dimethyl-2-[(1s,4S)-4-(trifluoromesylamino)cychloehxyl]ethylamino}-1-(5-fluoro-3-pyridyl)-1-ethanol], the Emax at 10 µM in experiment [1] was over 75%; in experiment [2], under 25%.
With `O=C(N[C@H]1CC[C@@H](CNC[C@H](O)c2cncc(F)c2)CC1)c1ccccc1` [Compound 318, N-[(1S,4s)-4-{[(R)-2-(5-fluoro-3-pyridyl)-2-hydroxyethylamino]methyl}cyclohexyl]benzamide], the values for the Emax at 10 µM in experiment [1] and in experiment [2] were 50 to 75% and under 25%, respectively.
Taken in the same sequence, the figures for `O[C@H](c1cccc(F)c1)C12CCC(COCc3ccc(F)cc3)(CC1)N2` [Compound 439, (R)-(m-fluorophenyl)(4-{[(p-fluorophenyl)methoxy]methyl}-7-azabicyclo[2.2.1]hept-1-yl)methanol] were over 75% and 25 to 50%.
Turning to `CCC[C@H]1CCC[C@@H]([C@H](O)c2cccc(O)c2)N1` [Compound 122, (R)-[(2S,6S)-6-propyl-2-piperidyl](m-hydroxyphenyl)methanol], the Emax at 10 µM in experiment [1] is 50 to 75%; in experiment [2], under 25%.
As for `O[C@H](c1cccc(F)c1)C12CCC(Cc3ccc(F)cc3)(CC1)N2` [Compound 413, (R)-(m-florophenyl){4-[(p-fluorophenyl)methyl]-7-azabicyclo[2.2.1]hept-1-yl}methanol], the Emax at 10 µM was over 75% in experiment [1] and under 25% in experiment [2].
Regarding `CO[C@H]1CC[C@@H](C(C)(C)NC[C@H](O)c2cccc(F)c2)CC1` [Compound 251, (R)-1-(m-fluroophenyl)-2-{1-methyl-1-[(1s,4S)-4-methoxycyclohexyl]ethyl-amino}-1-ethanol], the Emax at 10 µM in experiment [1] and in experiment [2] was under 25% each time.
As to `Oc1ccc(C(O)CNCC2CC2)cc1` (stereo not shown) [Compound 3, p-{2-[(cyclopropylmethyl)ami-no]-1-hydroxyethyl}phenol], the figures for the Emax at 10 µM in experiment [1] and in experiment [2] were 50 to 75% and under 25%, respectively.
Taken in the same sequence, the figures for `COC(=O)[C@H]1CC[C@H](CCC(C)(C)NC[C@H](O)c2cccc(F)c2)CC1` [Compound 350, methyl (1R,4r)-4-{3-[(R)-2-(m-fluorophenyl)-2-hydroxyethylamino]-3-methylbutyl}cyclohexanecarobxylate] were over 75% and under 25%.
With `CC1(C)C[C@H]([C@H](O)c2ccccc2F)N1` [Compound 204, (R)-[(R)-4,4-dimethyl-2-azetidinyl](o-fluorophenyl)methanol], the results for the Emax at 10 µM in experiment [1] and in experiment [2] were over 75% and 25 to 50%, respectively.
The matching figures for `O[C@H](c1cccc(F)c1)C12CCC(Cc3ccc(OC(F)(F)F)cc3)(CC1)N2` [Compound 501, (R)-(m-fluorophenyl){4-[(p-trifluoromethoxyphenyl)methyl]-7-azabicyclo[2.2.1]hept-1-yl}methanol]: under 25% and under 25%.
Consider `CCC(C)NCC(O)c1ccc(O)cc1` (stereo not shown) [Compound 5, 2-(sec-butylamino)-1-(p-hydroxyphenyl)-1-ethanol], for which the figures for the Emax at 10 µM in experiment [1] and in experiment [2] were 50 to 75% and under 25%, respectively.
In the case of `CC(C)(C[C@H]1CC[C@H](NC(=O)C2CCC2)CC1)NC[C@H](O)c1cccc(F)c1` [Compound 431, N-[(1R,4r)-4-{2-[(R)-2-(m-fluorophenyl)-2-hydroxyethylamino]-2-methylpropyl}cyclohexyl]cyclobutanecarboxamide], the Emax at 10 µM in experiment [1] was over 75%; in experiment [2], 50 to 75%.
Consider `CCC[C@@H](C)NC[C@H](O)c1ccc(O)cc1` [Compound 27, (R)-2-[(R)-1-methylbutylamino]-1-(p-hydroxyphenyl)-1-ethanol], for which the Emax at 10 µM in experiment [1] was over 75%; in experiment [2] it was 25 to 50%.
For the compound `CC(C)(C[C@H]1CC[C@H](NS(C)(=O)=O)CC1)NC[C@@H](O)c1cccc(C#N)n1` [Compound 428, 6-[(R)-2-{1,1-dimethyl-2-[(1r,4R)-4-(mesylamino)cyclohexyl]ethylamino}-1-hydroxyethyl]-2-pyridinecarobnitrile], the Emax at 10 µM in experiment [1] and in experiment [2] was under 25% in each case.
On to `O[C@@H](c1cccc(F)c1)C12CCC(COCc3ccc(F)cc3)(CC1)N2` [Compound 438, (S)-(m-fluorophenyl)(4-{[(p-fluorophenyl)methoxy]methyl}-7-azabicyclo[2.2.1]hept-1-yl)methanol], for which the Emax at 10 µM in experiment [1] and in experiment [2] was under 25% in each case.
On to `CC12CC(C1)[C@@H]([C@H](O)c1cncc(F)c1)N2` [Compound 223, (R)-{(S)-1-methyl-2-azabicyclo[2.1.1]hex-3-yl}(5-fluoro-3-pyridyl)methanol], for which the Emax at 10 µM in experiment [1] was 25 to 50%; in experiment [2], under 25%.
Turning to `COc1ccc(CCC23CCC([C@H](O)c4cncc(F)c4)(CC2)N3)cc1` [Compound 542, (R)-(5-fluoro-3-pyridyl){4-[2-(p-methoxyphenyl)ethyl]-7-azabicyclo[2.2.1]hept-1-yl}methanol], the Emax at 10 µM in experiment [1] fell in the range of 50 to 75%; in experiment [2], 25 to 50%.
The matching figures for `CCCC(C)NCC(O)c1ccc(O)cc1` (stereo not shown) [Compound 8, 1-(p-hydroxyphenyl)-2-(1-methylbutylamino)-1-ethanol]: 50 to 75% and 25 to 50%.
As for `CC(=O)N[C@H]1CC[C@H](CC(C)(C)NC[C@H](O)c2cccc(C#N)n2)CC1` [Compound 425, N-[(1S,4r)-4-{2-[(S)-2-(6-cyano-2-pyridyl)-2-hydroxyethylamino]-2-methylpropyl}cyclohexyl]acetamide], the Emax at 10 µM in experiment [1] was over 75%; in experiment [2] it was 25 to 50%.
Regarding `CC(C)(C)NC[C@H](O)c1cccc(O)c1F` [Compound 86, (R)-2-(tert-butylamino)-1-(2-fluoro-3-hydroxyphenyl)-1-ethanol], the Emax at 10 µM in experiment [1] and in experiment [2] was 50 to 75% each time.
Turning to `CS(=O)(=O)Nc1cccc(CC23CCC([C@@H](O)c4cccc(F)c4)(CC2)N3)c1` [Compound 514, (S)-(m-fluorophenyl)(4-{[m-(mesylamino)phenyl]methyl}-7-azabicyclo[2.2.1]hept-1-yl)methanol], the results for the Emax at 10 µM in experiment [1] and in experiment [2] were 50 to 75% and under 25%, respectively.
`CO[C@H]1CC[C@H](CCCNC[C@H](O)c2cccc(F)c2)CC1` [Compound 259, (R)-1-(m-fluorophenyl)-2-{3-[(1r,4S)-4-methoxycyclohexyl]propyl-amino}-1-ethanol]: the figures for the Emax at 10 µM in experiment [1] and in experiment [2] were 25 to 50% and under 25%, respectively.
As for `O[C@@H](CNCC[C@H]1CC[C@@H](O)CC1)c1cncc(F)c1` [Compound 293, (R)-1-(5-fluoro-3-pyridyl)-2-{2-[(1s,4S)-4-hydroxycyclohexyl]ethylamino}-1-ethanol], the Emax at 10 µM in experiment [1] is 25 to 50%; in experiment [2], under 25%.

Values taken from patent publication US20260256751A1, “COMBINATION OF BETA-2-ADRENERGIC RECEPTOR AGONISTS AND GLP-1 RECEPTOR AGONISTS FOR USE IN TREATING HYPERGLYCAEMIA” (ATROGI AB, priority 2023, published 2026).
